≈ marks a conversion by molar mass, not a printed value.
Assays:
physchem [1] = experiment: physchem
Staphylococcus aureus [2] = experiment: microbe, parasite or virus in culture; details: ATCC 49951
physchem [3] = details: octanol/water, pH 7.4
Staphylococcus aureus [4] = experiment: microbe, parasite or virus in culture; details: ATCC 49951; remark: listed apart in the source

Row | SMILES | pKa (physchem [1]) | MIC (Staphylococcus aureus [2]) | logD (physchem [3]) | MIC (Staphylococcus aureus [4])
1 | C[C@H]1COc2c(N3CC4[C@H](C3)[C@H](N)CCC4(F)F)c(F)cc3cc(C(=O)O)c(=O)n1c23 (single isomer, unassigned) | 5.1 | ≤ 0.03 µg/mL | -0.78 | 0.125 µg/mL (≈ 0.286 µM)
2 | C[C@H]1COc2c(N3CC4C[C@H](F)C[C@@H](N)[C@H]4C3)c(F)cc3cc(C(=O)O)c(=O)n1c23 (single isomer, unassigned) | 5.07 | ≤ 0.03 µg/mL | -1.04 | 0.06 µg/mL (≈ 0.143 µM)
3 | Cc1c(N2CC[C@@H](C3(N)CC3)C2)c(F)cc2cc(-c3n[nH]c(=O)o3)c(=O)n(C3CC3)c12 | 7.2 | 0.125 µg/mL (≈ 0.294 µM) |  | 0.06 µg/mL (≈ 0.141 µM)
4 | C[C@H]1CCOc2c(N3CC[C@@H](C4(N)CC4)C3)c(F)cc3cc(C(=O)O)c(=O)n1c23 |  | 0.25 µg/mL (≈ 0.623 µM) | 0.01 | 8 µg/mL (≈ 19.9 µM)
5 | Cc1c(N2CCC(C3(N)CC3)C2)c(F)cc2c(Cc3noc(=O)[nH]3)cc(=O)n(C3CC3)c12 (stereo unspecified) | 5.1 | 4 µg/mL (≈ 9.1 µM) | -0.74 | 32 µg/mL (≈ 72.8 µM)
6 | C[C@H]1COc2c(N3CC[C@@H](C4(N)CC4)C3)ccc3cc(C(=O)O)c(=O)n1c23 |  |  |  | 4 µg/mL (≈ 10.8 µM)
7 | C[C@H]1COc2c(N3CC[C@@H](C4(N)CC4)C3)c(F)c(C#N)c3cc(C(=O)O)c(=O)n1c23 |  | 0.125 µg/mL (≈ 0.303 µM) | -1.86 | 1 µg/mL (≈ 2.42 µM)
8 | Cc1c(N2CC[C@@H](C3(N)CC3)C2)c(F)cc2cc(C(N)=O)c(=O)n(C3CC3)c12 | 8.4 | 0.25 µg/mL (≈ 0.65 µM) |  | 1 µg/mL (≈ 2.6 µM)
9 | C[C@@H]1COc2c(N3CC[C@@H](C4(N)CC4)C3)c(F)cc3cc(C(=O)O)c(=O)n1c23 |  | 16 µg/mL (≈ 41.3 µM) | -0.92 | > 32 µg/mL
10 | CO[C@@H]1CC[C@@H](N)[C@H]2CN(c3c(F)cc4cc(C(=O)O)c(=O)n5c4c3OC[C@@H]5C)CC12 (single isomer, unassigned) | 4.9 | ≤ 0.03 µg/mL | -1.28 | 0.25 µg/mL (≈ 0.579 µM)
11 | Cc1c(N2CCC(C3(N)CC3)C2)c(F)cc2c(Cc3noc(=S)[nH]3)cc(=O)n(C3CC3)c12 (stereo unspecified) | 2.5 | 8 µg/mL (≈ 17.6 µM) | -0.3 | 8 µg/mL (≈ 17.6 µM)
12 | C[C@H]1COc2c(N3CC4C[C@@H](OC(F)F)C[C@@H](N)[C@H]4C3)c(F)cc3cc(C(=O)O)c(=O)n1c23 (single isomer, unassigned) | 5.2 | 0.06 µg/mL (≈ 0.128 µM) | -0.4 | 1 µg/mL (≈ 2.14 µM)
13 | C[C@H]1COc2c(N3CC[C@@H](C4(N)CC4)C3)cc(C#N)c3cc(C(=O)O)c(=O)n1c23 |  | 0.25 µg/mL (≈ 0.634 µM) | -0.55 | 2 µg/mL (≈ 5.07 µM)
14 | C[C@H]1COc2c(N3CC4OCC[C@@H](N)[C@H]4C3)c(F)cc3cc(C(=O)O)c(=O)n1c23 (single isomer, unassigned) | 5.2 | 0.125 µg/mL (≈ 0.31 µM) | -1.66 | 1 µg/mL (≈ 2.48 µM)
15 | C[C@H]1COc2c(N3CC[C@@H](C4(N)CC4)C3)c(Cl)cc3cc(C(=O)O)c(=O)n1c23 |  | 2 µg/mL (≈ 4.95 µM) | -1.12 | 32 µg/mL (≈ 79.2 µM)
16 | C[C@H]1COc2c(N3CC[C@@H](C4(N)CC4)C3)cc(F)c3cc(C(=O)O)c(=O)n1c23 |  | 0.25 µg/mL (≈ 0.645 µM) | -0.4 | 2 µg/mL (≈ 5.16 µM)
17 | Cc1c(N2CCC(C3(N)CC3)C2)c(F)cc2c(-c3noc(=S)[nH]3)cc(=O)n(C3CC3)c12 (stereo unspecified) | 2 | 4 µg/mL (≈ 9.06 µM) |  | 4 µg/mL (≈ 9.06 µM)
18 | C[C@H]1COc2c(N3CCN(C)CC3)c(F)cc3cc(C(=O)O)c(=O)n1c23 | 4.5 | 16 µg/mL (≈ 44.3 µM) | -1.99 | > 32 µg/mL
19 | C[C@H]1COc2c(N3CC[C@H](O)C3)c(F)cc3cc(C(=O)O)c(=O)n1c23 | 5.2 | 0.5 µg/mL (≈ 1.44 µM) | -0.46 | > 32 µg/mL
20 | Cc1c(N2CC[C@@H](C3(N)CC3)C2)c(F)cc2cc(-c3ncon3)c(=O)n(C3CC3)c12 | 8.4 | 0.25 µg/mL (≈ 0.611 µM) | 1.46 | 0.5 µg/mL (≈ 1.22 µM)

Row | SMILES | pKa (physchem [1]) | MIC (Staphylococcus aureus [2]) | logD (physchem [3]) | MIC (Staphylococcus aureus [4])
21 | Cc1c(N2CCC(C3(N)CC3)C2)c(F)cc2c(-c3cc(O)no3)cc(=O)n(C3CC3)c12 (stereo unspecified) | 4.7 | 1 µg/mL (≈ 2.36 µM) | 0.29 | 2 µg/mL (≈ 4.71 µM)
22 | C[C@H]1COc2c(N3CC(CN)C4(CCC4)C3)c(F)cc3cc(C(=O)O)c(=O)n1c23 (stereo partly specified) | 5.2 | 0.125 µg/mL (≈ 0.311 µM) | -0.66 | 2 µg/mL (≈ 4.98 µM)
23 | C[C@H]1COc2c(N3CC[C@@H](C4(N)CC4)C3)c(C#N)cc3cc(C(=O)O)c(=O)n1c23 |  | 0.25 µg/mL (≈ 0.634 µM) | -1.77 | 4 µg/mL (≈ 10.1 µM)
24 | C[C@H]1COc2c(N3CC[C@@H](C4(N)CC4)C3)cc(Cl)c3cc(C(=O)O)c(=O)n1c23 |  |  |  | 1 µg/mL (≈ 2.48 µM)
25 | Cc1c(N2CCC(C3(N)CC3)C2)c(F)cc2c(-c3n[nH]c(=O)o3)cc(=O)n(C3CC3)c12 (stereo unspecified) | 6.4 | 0.5 µg/mL (≈ 1.18 µM) |  | 1 µg/mL (≈ 2.35 µM)
26 | CO[C@@H]1CC2CN(c3c(F)cc4cc(C(=O)O)c(=O)n5c4c3OC[C@@H]5C)C[C@@H]2[C@H](N)C1 (single isomer, unassigned) | 5.2 | ≤ 0.03 µg/mL | -1.5 | 0.25 µg/mL (≈ 0.579 µM)
27 | C[C@H]1COc2c(N3CC[C@@H](C4(N)CCC4)C3)c(F)cc3cc(C(=O)O)c(=O)n1c23 | 4.9 | 0.125 µg/mL (≈ 0.311 µM) | -1.42 | 2 µg/mL (≈ 4.98 µM)
28 | C[C@H]1CCc2c(N3CC[C@@H](C4(N)CC4)C3)c(F)cc3cc(C(=O)O)c(=O)n1c23 |  | 0.06 µg/mL (≈ 0.156 µM) | -0.27 | 1 µg/mL (≈ 2.59 µM)
29 | Cc1c(N2CC[C@@H](C3(N)CC3)C2)c(F)cc2cc(C#N)c(=O)n(C3CC3)c12 | 8.4 | 0.06 µg/mL (≈ 0.164 µM) | 1.19 | 0.06 µg/mL (≈ 0.164 µM)
30 | COc1cc2cc(C(=O)O)c(=O)n3c2c(c1N1CC[C@@H](C2(N)CC2)C1)OC[C@@H]3C |  | 32 µg/mL (≈ 80.1 µM) | -1.22 | > 32 µg/mL
31 | C[C@H]1COc2c(N3CC[C@@H](C4(N)CC4)C3)c(F)c(Cl)c3cc(C(=O)O)c(=O)n1c23 |  | ≤ 0.03 µg/mL | -0.46 | 0.5 µg/mL (≈ 1.19 µM)
32 | C[C@H]1COc2c(N3CC[C@@H](C4(N)CC4)C3)c(F)c(F)c3cc(C(=O)O)c(=O)n1c23 |  | 0.06 µg/mL (≈ 0.148 µM) | -0.85 | 1 µg/mL (≈ 2.47 µM)
33 | Cc1c(N2CC[C@@H](C3(N)CC3)C2)c(F)cc2cc(Cc3n[nH]c(=O)o3)c(=O)n(C3CC3)c12 | 8.8 | 32 µg/mL (≈ 72.8 µM) | 0.87 | 32 µg/mL (≈ 72.8 µM)
34 | Cc1c(N2CC[C@@H](C3(N)CC3)C2)c(F)cc2cc(-c3nnco3)c(=O)n(C3CC3)c12 | 8.3 | 0.125 µg/mL (≈ 0.305 µM) |  | 0.125 µg/mL (≈ 0.305 µM)
35 | C[C@H]1COc2c(N3CC[C@@H](C4(N)CC4)C3)c(F)c(N)c3cc(C(=O)O)c(=O)n1c23 |  | 0.5 µg/mL (≈ 1.24 µM) | -0.97 | 8 µg/mL (≈ 19.9 µM)
36 | C[C@H]1COc2c(N3C[C@H]4[C@H](C3)OCC[C@@H]4N)c(F)cc3cc(C(=O)O)c(=O)n1c23 | 4.8 | ≤ 0.03 µg/mL | -1.72 | 1 µg/mL (≈ 2.48 µM)
37 | C[C@H]1COc2c(N3CC[C@H](N)C3)c(F)cc3cc(C(=O)O)c(=O)n1c23 | 4.8 | 2 µg/mL (≈ 5.76 µM) | < -2 | > 32 µg/mL
38 | C[C@H]1COc2c(N3CCC(=C(Cl)CN)CC3)c(F)cc3cc(C(=O)O)c(=O)n1c23 |  | 4 µg/mL (≈ 9.48 µM) | -0.39 | > 32 µg/mL
39 | C[C@H]1Cc2c(N3CC[C@@H](C4(N)CC4)C3)c(F)cc3cc(C(=O)O)c(=O)n1c23 |  | 0.25 µg/mL (≈ 0.673 µM) | -0.51 | 8 µg/mL (≈ 21.5 µM)

Source: ChEMBL document CHEMBL4808184, “Discovery and Optimization of DNA Gyrase and Topoisomerase IV Inhibitors with Potent Activity against Fluoroquinolone-Resistant Gram-Positive Bacteria” (J Med Chem, 2021)
